Measured values taken from patent publication US20260272878A1, “ADAR1 INHIBITORS AND USES THEREOF” (THE WISTAR INSTITUTE OF ANATOMY AND BIOLOGY, priority 2023, published 2026).

Assays:
[1] = target: T1, ADAR1p110-WT (Homo sapiens, UniProt P55265); assay: Biacore SPR binding to ADAR1p110-WT
T1 construct: made in house; host or cells: Sf9 cells (baculovirus)
T1 sequence (P55265 1-931 isoform P55265-5): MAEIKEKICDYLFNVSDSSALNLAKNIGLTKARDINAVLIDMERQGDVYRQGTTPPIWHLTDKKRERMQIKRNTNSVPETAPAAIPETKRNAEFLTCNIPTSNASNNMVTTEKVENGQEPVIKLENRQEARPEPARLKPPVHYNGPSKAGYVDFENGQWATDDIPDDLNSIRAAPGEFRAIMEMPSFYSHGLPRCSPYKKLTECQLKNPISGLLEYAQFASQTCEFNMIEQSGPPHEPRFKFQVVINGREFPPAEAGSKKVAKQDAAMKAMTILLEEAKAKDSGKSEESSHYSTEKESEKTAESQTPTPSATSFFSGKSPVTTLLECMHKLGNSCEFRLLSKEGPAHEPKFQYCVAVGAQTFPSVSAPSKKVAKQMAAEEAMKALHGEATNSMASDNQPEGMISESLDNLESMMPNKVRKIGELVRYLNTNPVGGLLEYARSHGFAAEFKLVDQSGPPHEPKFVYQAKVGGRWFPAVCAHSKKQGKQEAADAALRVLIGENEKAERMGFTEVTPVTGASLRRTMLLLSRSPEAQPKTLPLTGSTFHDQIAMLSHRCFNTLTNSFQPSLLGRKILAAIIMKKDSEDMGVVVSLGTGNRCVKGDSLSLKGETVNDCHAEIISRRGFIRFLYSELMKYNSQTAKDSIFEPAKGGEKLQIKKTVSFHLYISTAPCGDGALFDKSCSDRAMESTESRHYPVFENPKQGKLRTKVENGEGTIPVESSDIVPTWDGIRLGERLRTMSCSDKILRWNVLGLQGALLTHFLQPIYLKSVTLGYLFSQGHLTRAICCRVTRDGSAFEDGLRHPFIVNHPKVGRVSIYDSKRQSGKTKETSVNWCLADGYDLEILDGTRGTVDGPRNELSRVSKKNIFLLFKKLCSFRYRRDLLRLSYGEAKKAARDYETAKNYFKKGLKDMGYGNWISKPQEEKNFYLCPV
From the text: FIGS. 5A-5D show Biacore SPR analysis for binding of ADAR1i to ADAR1p110. (FIG. 5A) SPR analysis for binding kinetics of 8 compounds to ADAR1p110-WT. ADAR1 inhibition positive (ADAR1i-13, ADAR1i-120, ADAR1i-124) and negative compounds. (FIG. 5B, FIG. 5C) […] of SPR analysis for binding of ADAR1i-13 and ADAR1i-124 to ADAR1p110-WT and ADAR1p110-E912A as well as negative control proteins, GAPDH and HuR, are shown. […] ADAR1-E912, equivalent of ADAR2 E396, is located in the catalytic center.
No complete 3-D structure of ADAR1 is currently available. […] The glutamate E912 and E396 in ADAR1 and ADAR2, respectively, plays an important proton transfer function during hydrolytic deamination reaction (42, 43).

[2] = target: ADAR (Homo sapiens, UniProt P55265); settings: literature study; cited from earlier work
Sequence of ADAR (P55265 whole entry, species assumed): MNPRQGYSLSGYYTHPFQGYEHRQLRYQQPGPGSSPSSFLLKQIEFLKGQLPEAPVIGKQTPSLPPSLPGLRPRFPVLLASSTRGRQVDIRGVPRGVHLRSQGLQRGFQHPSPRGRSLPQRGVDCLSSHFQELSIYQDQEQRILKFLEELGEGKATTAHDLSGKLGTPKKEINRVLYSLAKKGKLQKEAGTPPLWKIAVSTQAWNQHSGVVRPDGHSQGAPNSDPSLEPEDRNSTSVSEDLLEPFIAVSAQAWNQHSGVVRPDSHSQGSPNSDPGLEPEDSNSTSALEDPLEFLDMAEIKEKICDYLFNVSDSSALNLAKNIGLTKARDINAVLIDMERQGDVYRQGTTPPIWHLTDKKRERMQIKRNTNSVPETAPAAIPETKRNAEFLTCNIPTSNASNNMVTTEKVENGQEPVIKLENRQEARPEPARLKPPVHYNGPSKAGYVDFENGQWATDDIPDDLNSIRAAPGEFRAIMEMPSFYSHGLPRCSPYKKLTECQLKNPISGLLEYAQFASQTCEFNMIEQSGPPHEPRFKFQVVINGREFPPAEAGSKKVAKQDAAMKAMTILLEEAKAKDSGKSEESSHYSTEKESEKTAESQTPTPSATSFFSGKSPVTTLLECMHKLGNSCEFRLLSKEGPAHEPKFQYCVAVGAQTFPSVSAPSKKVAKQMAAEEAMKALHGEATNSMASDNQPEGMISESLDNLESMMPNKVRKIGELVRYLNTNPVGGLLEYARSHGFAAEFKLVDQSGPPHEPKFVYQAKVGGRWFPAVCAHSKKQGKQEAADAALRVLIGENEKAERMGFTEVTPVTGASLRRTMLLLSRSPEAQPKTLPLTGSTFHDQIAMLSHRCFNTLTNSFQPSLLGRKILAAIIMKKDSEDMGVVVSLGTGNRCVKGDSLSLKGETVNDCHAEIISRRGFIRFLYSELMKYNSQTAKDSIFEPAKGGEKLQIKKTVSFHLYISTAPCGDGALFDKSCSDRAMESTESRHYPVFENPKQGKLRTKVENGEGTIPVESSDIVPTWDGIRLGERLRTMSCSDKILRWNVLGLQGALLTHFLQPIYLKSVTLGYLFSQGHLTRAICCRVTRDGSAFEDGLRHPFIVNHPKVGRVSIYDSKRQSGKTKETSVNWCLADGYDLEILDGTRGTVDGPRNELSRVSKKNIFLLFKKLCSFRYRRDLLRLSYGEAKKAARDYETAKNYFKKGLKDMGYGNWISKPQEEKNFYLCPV

[3] = system: HeLa-Nluc-edit cells; assay: First screen: FFL activity (cell viability/apoptosis) in reporter HeLa cells; settings: FIG. 2C

SMILES | Binding to ADAR1p110-WT [1] | further results
Nc1ncnc2c1nc(Cl)n2[C@@H]1O[C@H](CO)[C@@H](O)[C@H]1O [8-chloroadenosine] | – | ADAR inhibition [2]: not ADAR inhibitors
N#Cc1ccc(NC(=O)c2nc3c(N)ncnc3[nH]2)cc1 [ADAR1i-123] | did not bind | –
Nc1ncnc2c1nnn2[C@@H]1O[C@H](CO)[C@@H](O)[C@H]1O [8-azaadenosine] | – | ADAR inhibition [2]: not ADAR inhibitors
COc1cccc2c1C(=O)c1c(O)c3c(c(O)c1C2=O)C[C@@](O)(C(=O)CO)C[C@@H]3O[C@H]1C[C@H](N)[C@H](O)[C@H](C)O1 [Doxorubicin] | – | Acute apoptosis detected by reduction of FFL activity [3]: induces acute apoptosis

Now from value to compound, other results behind:

Binding to ADAR1p110-WT [1] | SMILES | further results
did not bind | N#Cc1ccc(NC(=O)c2nc3ccccc3[nH]2)cc1 [ADAR1i-122] | –
did not bind | N#Cc1ccc(NC(=O)c2[nH]c3ccccc3c2Cl)cc1 [ADAR1i-126] | –
did not bind | N#Cc1ccc(NC(=O)c2cc3ccccc3s2)cc1 [ADAR1i-125] | –
